Assay results: ChEMBL document CHEMBL1201862, “PubChem BioAssay data set” (2004)
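How tested: cells in 96-well plates exposed to compound for 48 hours at five concentrations. The concentration for 50% growth inhibition is given as GI50.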 The source made the active and inactive calls. Rule as the data show it: active = GI50 up to about 1.1 µM and inactive = higher.

How the values were obtained:
Experiment in all cases: DTP human tumour cell line panel, 48 h
A498 = system: A498
A549 = system: A549
COLO 205 = system: COLO 205
DU-145 = system: DU-145
HOP-62 = system: HOP-62
IGROV-1 = system: IGROV-1
M14 = system: M14
MDA-MB-231 = system: MDA-MB-231
Malme-3M = system: Malme-3M
NCI-H522 = system: NCI-H522
NCI/ADR-RES = system: NCI/ADR-RES
OVCAR-5 = system: OVCAR-5
SF-539 = system: SF-539
SK-MEL-5 = system: SK-MEL-5
SNB-19 = system: SNB-19
SR = system: SR
SW-620 = system: SW-620
TK-10 = system: TK-10
UO-31 = system: UO-31
OVCAR-3 = system: OVCAR-3

Row | SMILES | GI50 (A498) | GI50 (A549) | GI50 (COLO 205) | GI50 (DU-145) | GI50 (HOP-62) | GI50 (IGROV-1) | GI50 (M14) | GI50 (MDA-MB-231) | GI50 (Malme-3M) | GI50 (NCI-H522) | GI50 (NCI/ADR-RES) | GI50 (OVCAR-5) | GI50 (SF-539) | GI50 (SK-MEL-5) | GI50 (SNB-19) | GI50 (SR) | GI50 (SW-620) | GI50 (TK-10) | GI50 (UO-31) | GI50 (OVCAR-3)
1 | CN(C)c1ccc(/C=C/c2nc3ccccc3s2)cc1 | > 100 µM (inactive) | > 100 µM (inactive) | > 100 µM (inactive) | > 100 µM (inactive) | > 100 µM (inactive) | > 100 µM (inactive) | > 100 µM (inactive) | > 100 µM (inactive) | > 100 µM (inactive) | > 100 µM (inactive) | > 100 µM (inactive) | > 100 µM (inactive) | > 100 µM (inactive) | > 100 µM (inactive) | > 100 µM (inactive) | > 100 µM (inactive) | > 100 µM (inactive) | > 100 µM (inactive) | 8.53 µM (inactive) | –
2 | CC(=O)C1C(=O)C(C(C)=O)C2C3C=CC(C3)C12 (centres undefined) | > 100 µM (inactive) | > 100 µM (inactive) | > 100 µM (inactive) | > 100 µM (inactive) | > 100 µM (inactive) | > 100 µM (inactive) | – | > 100 µM (inactive) | > 100 µM (inactive) | > 100 µM (inactive) | > 100 µM (inactive) | > 100 µM (inactive) | > 100 µM (inactive) | > 100 µM (inactive) | > 100 µM (inactive) | > 100 µM (inactive) | > 100 µM (inactive) | > 100 µM (inactive) | > 100 µM (inactive) | > 100 µM (inactive)
3 | CS(=O)(=O)O[C@H]1[C@H](O)c2ccccc2[C@@H]1N=[N+]=[N-] | > 100 µM (inactive) | > 100 µM (inactive) | > 100 µM (inactive) | > 100 µM (inactive) | > 100 µM (inactive) | > 100 µM (inactive) | > 100 µM (inactive) | > 100 µM (inactive) | > 100 µM (inactive) | > 100 µM (inactive) | > 100 µM (inactive) | > 100 µM (inactive) | > 100 µM (inactive) | > 100 µM (inactive) | > 100 µM (inactive) | > 100 µM (inactive) | > 100 µM (inactive) | – | > 100 µM (inactive) | > 100 µM (inactive)
4 | O=C(CN1CCOCC1)CC(O)(C(F)(F)F)C(F)(F)F | > 100 µM (inactive) | > 100 µM (inactive) | > 100 µM (inactive) | > 100 µM (inactive) | – | 71.8 µM (inactive) | > 100 µM (inactive) | > 100 µM (inactive) | > 100 µM (inactive) | 42 µM (inactive) | > 100 µM (inactive) | > 100 µM (inactive) | > 100 µM (inactive) | 47.6 µM (inactive) | 65.9 µM (inactive) | 79.4 µM (inactive) | 48.9 µM (inactive) | > 100 µM (inactive) | 51.3 µM (inactive) | 35.9 µM (inactive)
5 | O=C(O)c1cnc(-n2[nH]c3c(c2=O)CCCC3)[nH]c1=O | > 100 µM (inactive) | > 100 µM (inactive) | > 100 µM (inactive) | > 100 µM (inactive) | – | > 100 µM (inactive) | > 100 µM (inactive) | > 100 µM (inactive) | > 100 µM (inactive) | > 100 µM (inactive) | > 100 µM (inactive) | > 100 µM (inactive) | > 100 µM (inactive) | > 100 µM (inactive) | > 100 µM (inactive) | > 100 µM (inactive) | > 100 µM (inactive) | > 100 µM (inactive) | > 100 µM (inactive) | –
6 | O=C1Nc2ccccc2/C1=N/Nc1ccccc1[N+](=O)[O-] | 32.8 µM (inactive) | 34.4 µM (inactive) | 69.7 µM (inactive) | 33.6 µM (inactive) | 19.3 µM (inactive) | 0.185 µM (active) | 87.5 µM (inactive) | 28.4 µM (inactive) | – | 21.8 µM (inactive) | 17 µM (inactive) | 38.3 µM (inactive) | 9.89 µM (inactive) | 40.9 µM (inactive) | 48.5 µM (inactive) | 6.62 µM (inactive) | 32.1 µM (inactive) | 69.2 µM (inactive) | 24.3 µM (inactive) | 10.5 µM (inactive)
7 | O=c1c2sc(=S)n(-c3ccc(F)cc3)c2ncn1/N=C/c1ccc(F)cc1F | 19.3 µM (inactive) | 46 µM (inactive) | > 100 µM (inactive) | 19 µM (inactive) | 16.6 µM (inactive) | 24.6 µM (inactive) | 23.2 µM (inactive) | 21.1 µM (inactive) | 18.7 µM (inactive) | 44.5 µM (inactive) | 33 µM (inactive) | 32.2 µM (inactive) | – | 58.1 µM (inactive) | 26.6 µM (inactive) | 40.1 µM (inactive) | > 100 µM (inactive) | 18.1 µM (inactive) | 24.9 µM (inactive) | 30.1 µM (inactive)
8 | CC(CSC(=N)N)C(N)=O (centres undefined) | > 100 µM (inactive) | > 100 µM (inactive) | > 100 µM (inactive) | > 100 µM (inactive) | > 100 µM (inactive) | > 100 µM (inactive) | > 100 µM (inactive) | > 100 µM (inactive) | > 100 µM (inactive) | > 100 µM (inactive) | > 100 µM (inactive) | > 100 µM (inactive) | – | > 100 µM (inactive) | > 100 µM (inactive) | > 100 µM (inactive) | > 100 µM (inactive) | > 100 µM (inactive) | > 100 µM (inactive) | > 100 µM (inactive)
9 | ClCCN1CCO/C1=N/c1ccc2c(c1)CCCC2 | 6.92 µM (inactive) | 13.8 µM (inactive) | 12.2 µM (inactive) | 15.7 µM (inactive) | 4.67 µM (inactive) | 7.48 µM (inactive) | 13.3 µM (inactive) | 13.4 µM (inactive) | 7.19 µM (inactive) | 10.8 µM (inactive) | 18.1 µM (inactive) | 17.3 µM (inactive) | 4.81 µM (inactive) | 1.96 µM (inactive) | 5.53 µM (inactive) | 19.6 µM (inactive) | 22.3 µM (inactive) | – | 14 µM (inactive) | 13 µM (inactive)
10 | CC(=O)/C(=C\NC(N)=S)C(=O)Nc1ccccc1C | > 100 µM (inactive) | > 100 µM (inactive) | > 100 µM (inactive) | > 100 µM (inactive) | > 100 µM (inactive) | > 100 µM (inactive) | > 100 µM (inactive) | > 100 µM (inactive) | – | > 100 µM (inactive) | > 100 µM (inactive) | > 100 µM (inactive) | > 100 µM (inactive) | > 100 µM (inactive) | > 100 µM (inactive) | > 100 µM (inactive) | > 100 µM (inactive) | > 100 µM (inactive) | > 100 µM (inactive) | > 100 µM (inactive)
11 | O=C(O)CSc1cc(-c2ccccc2)nc2ccccc12 | 28.5 µM (inactive) | 55.5 µM (inactive) | – | 34 µM (inactive) | 48.2 µM (inactive) | 57.7 µM (inactive) | 50.2 µM (inactive) | 98.9 µM (inactive) | 22.8 µM (inactive) | 22.6 µM (inactive) | 34.2 µM (inactive) | > 100 µM (inactive) | – | 30.4 µM (inactive) | > 100 µM (inactive) | 27.9 µM (inactive) | 44.3 µM (inactive) | 64.1 µM (inactive) | 42.8 µM (inactive) | 21.7 µM (inactive)
12 | COc1cc2ccc1OCc1cccc(n1)COc1ccc(cc1OC)/C=N\c1ccc(cc1)-c1ccc(cc1)/N=C\2 | > 100 µM (inactive) | > 100 µM (inactive) | > 100 µM (inactive) | > 100 µM (inactive) | 78 µM (inactive) | > 100 µM (inactive) | > 100 µM (inactive) | > 100 µM (inactive) | > 100 µM (inactive) | > 100 µM (inactive) | > 100 µM (inactive) | – | > 100 µM (inactive) | > 100 µM (inactive) | > 100 µM (inactive) | > 100 µM (inactive) | > 100 µM (inactive) | > 100 µM (inactive) | > 100 µM (inactive) | > 100 µM (inactive)
13 | COC(=O)c1cc2c(c3c1CC(Cc1ccccc1)C3=O)CCC2 (centres undefined) | > 100 µM (inactive) | 53.6 µM (inactive) | > 100 µM (inactive) | 61.4 µM (inactive) | 99.3 µM (inactive) | 73.3 µM (inactive) | 93.3 µM (inactive) | 62.2 µM (inactive) | 54.1 µM (inactive) | 68.4 µM (inactive) | > 100 µM (inactive) | > 100 µM (inactive) | > 100 µM (inactive) | 64.4 µM (inactive) | > 100 µM (inactive) | > 100 µM (inactive) | > 100 µM (inactive) | > 100 µM (inactive) | – | > 100 µM (inactive)
14 | CC(=O)Oc1c(C)c2c(O)c3c1C1=C(OCOC1=C(C)C3=O)/C(C)=C/C(C)(O)C(O)C(C)C(O)C1C(=O)OC(C(C)C1O)C(C)(O)/C=C\C=C(C)C(=O)N2 (centres undefined) | 15.1 µM (inactive) | 76 µM (inactive) | 86.5 µM (inactive) | 45.4 µM (inactive) | 19.2 µM (inactive) | 5.66 µM (inactive) | 34.4 µM (inactive) | 21.5 µM (inactive) | 41.9 µM (inactive) | 49.1 µM (inactive) | 78.3 µM (inactive) | 4.46 µM (inactive) | 10.4 µM (inactive) | 32.4 µM (inactive) | 66.8 µM (inactive) | 43.3 µM (inactive) | 63 µM (inactive) | – | 11.1 µM (inactive) | 43.3 µM (inactive)
